One experiment concerns rat paw. The experiment is described as follows: Post-ischemic reperfusion paw swelling (Example 22). The experiment is classed as in vivo, Sprague Dawley male rats. Conditions: for % Change as a result of treatment / Paw swelling, Mean ± SE: another study; for Paw swelling, Mean ± SE: i.p. 45 minutes prior. The source says: This important disease model is used to evaluate aspects of tissue injury that occur in heart attack, or myocardial infarction, and stroke. Under these conditions, a significant period of injury can occur after blood flow has been restored, during the period of reperfusion.
To produce ischemia, blood flow to the left hind foot was largely interrupted by application of a tourniquet made up of two size 18 rubber bands wound eight times around the leg just behind the heel. […] Both application and removal of tourniquet were carried out under ether anesthesia. Injury was equated with organ swelling, which was assayed by measurement of the dorsoventral foot diameter with a Schnelltaster caliper, just before application of the tourniquet and at various times following tourniquet removal, during the reperfusion period.
Rats employed were Sprague Dawley males, weighing 240-280 grams. Drug comparisons were made here employing measurements 30 minutes into the reperfusion period. The widely studied drug allopurinol, a xanthine oxidase inhibitor and a free radical scavenging agent, used in the treatment of gout, and widely used to suppress experimental post-ischemic reperfusion injury was used as an experimental treatment standard. In studies below, allopurinol and all new drugs were given intraperitoneally 45-60 minutes prior to application of the tourniquet. Data are reported as the mean swelling (Mn)±standard error (SE). […] Group n is 5 or 6.
In another study, drug comparisons were made at various times after the reperfusion period. In this study, control and drug treatment groups were as above.

Experiment [1] has as its system gastric submucosal thrombi. The experiment is described as follows: Inhibition of gastric submucosal thrombi (Example 30). It is filed as in vivo, rat. Conditions: 10 mg/kg IV. Here is the method: Thrombosis was induced in rat stomach submucosal blood vessels by the following two-step treatment. First, 1.5 ml of 100 percent ethanol was administered by oral gavage. This produces non-specific injury to tissues and blood vessels of the gastric mucosa. Second, 1.0 mg of adenosine diphosphate (ADP) in 1.0 ml of H2 O, was administered by oral garage 15 minutes after the administration of ethanol. Administration of ADP biases the organ response towards thrombosis by inducing platelet aggregation.
The pathology generated is typically a disseminated pattern of multiple small thrombi, observed on examination of the gastric mucosa, 1-3 hours after ethanol administration. These thrombi are dark red, dilated, thrombosed submucosal blood vessel segments, each being approximately 1 mm thick and 2 to 6 mm long.
In these studies, animals were treated with drug or centrol at one hour prior to ethanol administration. Thrombosis was induced as discussed before, and animals were sacrificed at 1.5 hours after ethanol administration. Focal thrombi were then counted. In this study, n=9-10.

The subject of a further experiment is platelet aggregation. In words: Mouse tail bleeding time (Example 31 B). It is filed as in vivo. As for the experimental part: A study of mouse tail bleeding time, which is an in vivo model of platelet aggregation and thrombosis was also conducted. In this widely employed model, bleeding was induced by a standardized transection of the tail tip and subsequent bleeding time was determined after vertical immersion of the tails in isotonic saline at 37° C. for thirty seconds.
Two compounds of the invention, Compound III and Compound VIII, were assessed as compared with aspirin, in another study of mouse tail bleeding time. In this study, the mice were housed in a standard animal room rather than in a noisy small animal isolator. Also, all three drugs were administered by an intraperitoneal route, rather than a subcutaneous route for Compound III and an intraperitoneal route for aspirin.

The test system of the next experiment is foot pad. The experiment is described as follows: Inflammation provoked by carrageenan injection (Example 25). The experiment is classed as in vivo, mice. Conditions: subcutaneous; ibuprofen 50 mg/kg, Compound III 30 mg/kg; not significant.
A further experiment concerns peritoneal neutrophils. In words: In vitro neutrophil chemotaxis toward zymosan-activated rat serum (Example 24). Conditions: Mus musculus, Neutrophil. It is filed as cell-based, mouse. Here is the method:
In vitro neutrophil chemotaxis studies were carried out by standard methods, as follows:
Mice were injected with complete Freund's adjuvant (CFA) and peritoneal cells, principally neutrophjls (>90 percent), were reproved from the mice 24 hours thereafter. Blind-well chemotactic chambers (Nucleopore Corp., Pleasanton, Calif.) were utilized.
Medium (RPMI 1640 plus 10 percent fetal calf serum) or medium plus 20 percent zymosan-activated rat serum (ZAS) was added to the lower compartment of each chamber. A nucleopore filter (8 μm pore size) was placed between compartments and 1×10^5 peritoneal neutrophils (above) suspended in medium were placed in the upper compartment. Chambers were incubated for six hours, after which time the filters were removed and stained with Giemsa stain. The number of cells on the lower surface of the filter was counted under a microscope. Treatment groups were assayed in duplicate.
The studies were carried out more specifically as follows:
Zymosan (Sigma Chemical Co., St. Louis, Mo.) was mixed with rat serum for one hour at 37° C. at 1 milligram (mg)/ml. The resulting chemoattractant composition was filtered, aliquotted and stored frozen at -70° C. prior to use.
The above chemoattractant composition was used as a 20 percent v/v solution in medium.
The chemotaxis chambers were arranged as follows:
The chambers were incubated at 37° C. for six hours, after which the chambers were dismantled, and the filters removed and treated as follows:
a) The filters were immersed in Giemsa stain diluted 1:50 for 30-45 minutes.
b) The stained filters were rinsed gently in distilled water for 3-5 minutes.
c) The stained, rinsed filters were air dried without blotting.
Several compounds described herein and control compounds ("drug", above) were examined at various concentrations, in duplicate. The molar concentration of a drug that inhibited the observed chemotaxis by 50 percent, defined as the ID50 value, was determined as shown below.

Experiment [2] relates to inflammation in experimental allergic encephalomyelitis. Conditions: Willenborg et al. (1989); cited from earlier work.

Molecules are shown by their SMILES. Entries after “also recorded” stand apart in the source; their conditions may differ. Counter-ions that a name gives are not always drawn.

Turning to `CC1(C)O[C@H]2O[C@H]([C@@H](COS(=O)(=O)O)OS(=O)(=O)O)[C@@H](OS(=O)(=O)O)[C@H]2O1` [Compound VIII, 1,2-O-(2-Propylidene)-3,5,6-tri-O-sulfo-α-D-allofuranose, tripotassium salt], the “paw swelling less than control” value in the experiment with rat paw (60 minutes of reperfusion time, i.p.) turned out to be 71%. Moreover, the “% Change as a result of treatment” value with rat paw (reperfusion time 20 mins., i.p.) is recorded as -46%; with rat paw (reperfusion time 30 mins., i.p.), -64%. In addition, the “Paw swelling, Mean ± SE” value is reported as 4.60 ± 0.40 0.1 mm in the experiment on rat paw (reperfusion time 20 mins., control 8.20 ± 1.02) and 2.40 ± 0.51 0.1 mm in the experiment with rat paw (reperfusion time 30 mins., control 6.60 ± 0.87). Also, the “Drug Effect on thrombi” value in experiment [1] is listed as -38.1%. Also, in experiment [1] (ethanol + ADP, control 10.60 ± 1.42), the “Mean Thrombi per Stomach, ±SE” value is 6.56 ± 1.60 per Stomach. Besides, the “% Increase in bleeding time” value in the experiment on platelet aggregation (100 mg/kg intraperitoneal) is 278%. Also, the “Mouse Tail Bleeding Time” value in the experiment with platelet aggregation (100 mg/kg intraperitoneal, control 37.0 ± 5.25) turned out to be 139.88 ± 28.23 s. Also, in the experiment with platelet aggregation (first study: aspirin 75 mg/kg IP, Compound III s.c. or oral, second study: all IP 100 mg/kg, tripotassium salt), the “potency relative to aspirin in prolonging mouse tail bleeding time / suppressing platelet aggregation” value is recorded as “more effective than aspirin; also recorded: more potent than aspirin in the suppression of platelet aggregation”.

For `CC(C)Cc1ccc(C(C)C(=O)O)cc1` (stereo not drawn) [Ibuprofen, reference compound], the reduction in swelling in the experiment with foot pad is 24%. Also, the IC50 with peritoneal neutrophils (6 h, 20 percent zymosan-activated rat serum, six hours, 37° C., read-out: ID50 (molar concentration that inhibited chemotaxis by 50 percent)) was greater than 50 µM. For the same compound, the inhibition at 0.1 µg/mL in the experiment with peritoneal neutrophils (dose 0.1 μg/ml, read-out: Percent Inhibition of chemotaxis) was 17.5%. Also, the inhibition at 1 µg/mL in the experiment on peritoneal neutrophils (dose 1.0 μg/ml, read-out: Percent Inhibition of chemotaxis) stood at 9.3%. Besides, the inhibition at 10 µg/mL in the experiment with peritoneal neutrophils (dose 10.0 μg/ml, read-out: Percent Inhibition of chemotaxis) was found to be 35.5%.

As to `O=P(O)(O)OC[C@H]1O[C@H](OP(=O)(O)O)[C@@H](O)[C@@H](O)[C@@H]1O` [Mannose-1,6-diphosphate], the “effect on inflammation in EAE, in words” value in experiment [2] is listed as “less effective than mannose-6-phosphate”.

`O=P(O)(O)OC[C@H]1OC(O)[C@@H](O)[C@@H](O)[C@@H]1O` (stereo partly drawn) [Mannose-6-phosphate]: the “effect on inflammation in EAE, in words” value in experiment [2] is reported as “useful in treating inflammation”.

Turning to `O=P(O)(O)OC[C@H]1OC(O)(COP(=O)(O)O)[C@@H](O)[C@@H]1O` (stereo partly drawn) [fructose-1,6-diphosphate], the “effect on inflammation in EAE, in words” value in experiment [2] is “less effective than mannose-6-phosphate”.

As a reminder, the inhibition is the percentage by which the read-out fell short of the control.

The record behind these values is US5358936A, “Anionic furanose derivatives, methods of making and using the same” (Gordon; Paul, priority 1991, dated 1994).
